{"source": "patent US11466286B2", "about": "“Methods and compositions for conferring and/or enhancing herbicide tolerance using protoporphyrinogen oxidase or variant thereof” (FarmHannong Co., Ltd., priority 2016, dated 2022)", "key": {"[1]": {"tested_on": "CyPPO13 (Synechococcus sp. JA-3-3Ab PPO, SEQ ID NO: 4) variant F373M, MBP fusion", "test": "PPO inhibition assay", "assay_type": "biochemical", "settings": "herbicide 0-5,000 nM, 50 μM substrate"}, "[2]": {"tested_on": "CyPPO13 (Synechococcus sp. JA-3-3Ab PPO, SEQ ID NO: 4) variant F373C, MBP fusion", "test": "PPO inhibition assay", "assay_type": "biochemical", "settings": "herbicide 0-5,000 nM, 50 μM substrate", "procedure": "(§1) The enzyme activities of PPO protein and PPO protein variants were examined, and inhibition assay by PPO-inhibiting herbicides was conducted. It was confirmed that the PPO protein has low water-solubility, but in case of being expressed as a fusion protein with MBP (maltose binding protein) (MBP-PPO), the PPO protein is able to be stably expressed as water-soluble form. Therefore, the wild type and variant proteins which were expressed in the form of fusion protein with MBP were used in the present test (refer to FIG. 4).\n(§2) At first, a substrate of PPO protein, Protoporphyrinogen IX was synthesized. This process was performed in the space where nitrogen gas is streamed. 6 mg of protoporphyrin IX was dissolved in 20% (v/v) EtOH 20 ml, and stirred under dark condition for 30 minutes. The obtained protoporphyrinogen IX solution was put into a 15 ml screw tube in an amount of 800 and flushed with nitrogen gas for 5 minutes. To this, 1 g of sodium amalgam was added and vigorous shaking was performed for 2 minutes. The lid was open to exhaust hydrogen gas in the tube. Thereafter, the lid was closed and incubated for 3 minutes. The […] was filtered using syringe and cellulose membrane filter. To 600 μl of the obtained […], 2M MOPS [3-(N-morpholino)propanesulfonic acid] was added in an amount of approximately 300 thereby adjusting pH to 8.0. To determine the enzyme activity of PPO protein, a reaction mixture was prepared with the following composition (based on 10 ml): 50 mM Tris-Cl (pH 8.0); 50 mM NaCl; 0.04% (v/v) Tween 20; 40 mM glucose (0.072 g); 5 units glucose oxidase (16.6 mg); and 10 units catalase (1 μl).\n(§3) Two hundred microliters (200 μl) of reaction mixture containing a purified PPO protein were placed in 96 well plates, and preincubated for 30 min at room temperature to reduce the oxygen concentration by the reaction of glucose oxidase-catalase. The mineral oil was layered and then the reaction was initiated by adding the substrate, […], to a final concentration of 50 μM. The reaction proceeded at room temperature for 30 min and the fluorescence of protoporphyrin IX was measured using Microplate reader (Sense, Hidex) (excitation: 405 nm; emission: 633 nm). To calculate the PPO enzyme activity, protoporphyrinogen IX solution was kept open in the air to oxidize the solution (overnight). To this, 2.7N HCl was added, and the absorbance at 408 nm was measured. A standard curve was generated using standard protoporphyrin IX, and the PPO activity was measured by calibration of protoporphyrin IX using the standard curve of protoporphyrin IX.\n(§4) The final concentration of each herbicide was as follows: […]"}, "[3]": {"tested_on": "CyPPO13 (Synechococcus sp. JA-3-3Ab PPO, SEQ ID NO: 4) variant F373H, MBP fusion", "test": "PPO inhibition assay", "assay_type": "biochemical", "settings": "herbicide 0-5,000 nM, 50 μM substrate", "procedure": "as §1, §2, §3, §4"}, "[4]": {"tested_on": "CyPPO13 (Synechococcus sp. JA-3-3Ab PPO, SEQ ID NO: 4) variant F373I, MBP fusion", "test": "PPO inhibition assay", "assay_type": "biochemical", "settings": "herbicide 0-5,000 nM, 50 μM substrate", "procedure": "as §1, §2, §3, §4"}, "[5]": {"tested_on": "CyPPO13 (Synechococcus sp. JA-3-3Ab PPO, SEQ ID NO: 4) variant F373L, MBP fusion", "test": "PPO inhibition assay", "assay_type": "biochemical", "settings": "herbicide 0-5,000 nM, 50 μM substrate", "procedure": "as §1, §2, §3, §4"}, "[6]": {"tested_on": "CyPPO13 (Synechococcus sp. JA-3-3Ab PPO, SEQ ID NO: 4) variant F373V, MBP fusion", "test": "PPO inhibition assay", "assay_type": "biochemical", "settings": "herbicide 0-5,000 nM, 50 μM substrate", "procedure": "as §1, §2, §3, §4"}, "[7]": {"tested_on": "PPO-deficient BT3 E. coli (ΔPPO) with CyPPO10 wild type (Cy10 WT, SEQ ID NO: 2)", "test": "Growth of transformed BT3 (ΔPPO) on tiafenacil media", "assay_type": "cell-based", "procedure": "(§5) After transforming PPO-deficient BT3 E. coli (ΔPPO) with CyPPO10 or CyPPO13, the transformed BT3 (ΔPPO) was cultured on LB agar plates containing PPO-inhibiting herbicide to examine the growth level of the transformed BT3 (ΔPPO). BT3 (ΔPPO) strain was obtained from Hokkaido University (Japan). The BT3 (ΔPPO) strain is deficient in hemG-type PPO and has kanamycin tolerance (refer to “Watanabe et al., Dual targeting of spinach protoporphyrinogen oxidase II to mitochondria and chloroplasts by alternative use of two in-frame […], JBC 2001 276(23):20474-20481; Che et al., Molecular Characterization and Subcellular Localization of Protoporphyrinogen Oxidase in Spinach Chloroplasts, Plant Physiol. 2000 September; 124(1):59-70”).\n(§6) CyPPO10 and CyPPO13 genes were cloned in pACBB vector (Plasmid #32551; Addgene; refer to FIG. 1).\n(§7) For seed culture of E. coli transformed with respective genes, each single colony of E. coli transformant as provided above was cultured in 3 ml of LB broth containing chloramphenicol overnight (220 rpm, 37° C.), and 50 to 100 μl were subcultured in a new 3 ml of LB broth, and they were cultured until absorbance (OD600) became 0.5 to 1, and they were diluted with LB broth to absorbance (OD600) of 0.5. The diluted solution was serially diluted again 5 times by a factor of one tenth with LB broth. […] The LB Agar media were incubated at 37° C., under light condition, and level of inhibiting growth was observed after 16 to 20 hours of incubation."}, "[8]": {"tested_on": "PPO-deficient BT3 E. coli (ΔPPO) with CyPPO13 wild type (Cy13 WT, SEQ ID NO: 4)", "test": "Growth of transformed BT3 (ΔPPO) on tiafenacil media", "assay_type": "cell-based", "procedure": "as §5, §6, §7"}, "[9]": {"tested_on": "BT3 (ΔPPO) E. coli with CyPPO10m-6 (E225G, G258S, Q266L, T336I, V356F, F360M, A364D, R406G, W419R; SEQ ID NO: 131)", "test": "Growth of BT3 with error-prone PCR mutant of CyPPO10", "assay_type": "cell-based", "settings": "up to 200 μM herbicide"}, "[10]": {"tested_on": "wild type A. thaliana (Col-0 ecotype)", "test": "Herbicide injury of A. thaliana plants", "assay_type": "in vivo, Arabidopsis thaliana", "settings": "1 μM spray, within 7 days", "procedure": "For comparison, the same test was conducted using the wild type A. thaliana (Col-0 ecotype)."}, "[11]": {"tested_on": "Kwangan soybean (non-transformed)", "test": "Herbicide tolerance of soybean", "assay_type": "in vivo", "settings": "5 μM painted on leaves, 7 days"}, "[12]": {"tested_on": "soybean transformed with CyPPO10 A167L+F360M", "test": "Herbicide tolerance of soybean", "assay_type": "in vivo"}}, "data": [{"smiles": "COC(=O)CCNC(=O)C(C)Sc1cc(-n2c(=O)cc(C(F)(F)F)n(C)c2=O)c(F)cc1Cl", "note": "(stereo not drawn) [Tiafenacil]", "values": [{"measurement": "IC50", "setting": "[1]", "result": 56, "unit": "nM"}, {"measurement": "IC50", "setting": "[2]", "result": 212, "unit": "nM"}, {"measurement": "IC50", "setting": "[3]", "result": 114, "unit": "nM"}, {"measurement": "IC50", "setting": "[4]", "result": 135, "unit": "nM"}, {"measurement": "IC50", "setting": "[5]", "result": 141, "unit": "nM"}, {"measurement": "IC50", "setting": "[6]", "result": 339, "unit": "nM"}, {"measurement": "growth", "setting": "[7]; 100 μM tiafenacil", "result": "at the similar level to that of the medium containing no tiafenacil"}, {"measurement": "growth", "setting": "[7]; 400 μM tiafenacil", "result": "grew well"}, {"measurement": "growth", "setting": "[8]; 100 μM tiafenacil", "result": "at the similar level to that of the medium containing no tiafenacil"}, {"measurement": "growth", "setting": "[8]; 400 μM tiafenacil", "result": "grew well"}, {"measurement": "cell viability", "setting": "[9]", "result": "cell viability similar to that of cells with wild type CyPPO10"}, {"measurement": "plant damage", "setting": "[10]", "result": "completely died"}, {"measurement": "leaf damage", "setting": "[11]", "result": "severe damage"}, {"measurement": "leaf damage", "setting": "[12]; T0, 15 μM painted on leaves", "result": "no damage"}, {"measurement": "damage level", "setting": "[12]; T1, 25 μM tiafenacil spray, 5 days", "result": "no damage"}]}]}
